Measured values reported in patent US5792767A, “Bicyclic substituted hexahydrobenz [e] isoindole alpha-1 adrenergic antagonists” (priority 1995, dated 1998).
Where a name gives a salt, the structure may show the parent alone.

Biological target: T1, α-1A adrenoceptor (dog prostate)
T1 construct: from tissue; host or cells: canine prostate strips
Experiment: Functional antagonism of phenylephrine-induced contraction of canine prostate strips
Type: cell-based, dog (canine)
Conditions: vs phenylephrine-induced contraction, Schild plot; read-out: pA2 Dog Prostate [α-1A] (converted)
Excerpt: Canine prostate strips were used in vitro as previously described (Hieble, J. P., Boyce, A. J. and Caine, M., Fed. Proc., 45: 2609-2614 (1986)), to determine antagonist potencies against phenylephrine-induced contractions.
Functional assays indicative of pharmacologically defined α-1 adrenoceptors were used to further characterize compounds. Inhibition of phenylephrine (PE)-induced contraction of canine prostate smooth muscle can be correlated with α-1A adrenoceptor activation. […] For each of these models, agonist dose response curves were repeated against increasing concentrations of test agent to derive a Schild plot [log ([…]) against log (molarity of test agent)] to determine the pA2.

T1 sequence (P35348 whole entry): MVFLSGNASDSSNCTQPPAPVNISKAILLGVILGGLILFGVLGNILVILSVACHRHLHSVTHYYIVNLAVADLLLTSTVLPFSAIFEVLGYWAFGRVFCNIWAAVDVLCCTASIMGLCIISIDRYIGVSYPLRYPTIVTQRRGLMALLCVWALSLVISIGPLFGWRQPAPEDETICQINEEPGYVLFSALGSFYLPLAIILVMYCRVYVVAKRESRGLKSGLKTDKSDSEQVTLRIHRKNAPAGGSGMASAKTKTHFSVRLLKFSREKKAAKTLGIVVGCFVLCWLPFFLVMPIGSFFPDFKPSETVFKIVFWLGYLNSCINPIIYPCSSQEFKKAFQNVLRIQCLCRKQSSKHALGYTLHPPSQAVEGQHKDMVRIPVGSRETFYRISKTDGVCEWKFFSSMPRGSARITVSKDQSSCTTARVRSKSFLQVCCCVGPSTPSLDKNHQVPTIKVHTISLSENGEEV

Kb [nM] | SMILES
0.24 | COc1cccc2c1CC[C@H]1CN(CCn3c(=O)[nH]c4cc5c(cc4c3=O)OCO5)C[C@@H]21 [Example 37, hydrochloride]
0.229 | COc1cccc2c1CC[C@H]1CN(CCn3c(=O)[nH]c4cc5c(cc4c3=O)OCCO5)C[C@@H]21 [Example 38, hydrochloride]
5.37 | COc1cccc2c1CC[C@H]1CN(CCN3Cc4ccccc4NC3=O)C[C@@H]21 [Example 44, hydrochloride]
0.575 | COc1cccc2c1CC[C@H]1CN(CCn3c(=O)[nH]c4cc(C(N)=O)ccc4c3=O)C[C@@H]21 [Example 46, hydrochloride]
1.62 | COc1cccc2c1CC[C@H]1CN(CCn3c(=O)[nH]c4cc(C(=O)N(C)C)ccc4c3=O)C[C@@H]21 [Example 47, 3-[2-((3aR ,9bR)-cis-6-Methoxy-2,3,3a,4,5,9b-hexahydro-[1H]-benz[e]isoindol-1-yl)ethyl]-7-(N,N'-dimethyl)carbamylguinazoline-2,4(1H,3H)-dione hydrochloride]
6.46 | COc1cccc2c1CC[C@H]1CN(CCn3c(=O)[nH]c4c(Cl)c(OC)c(Cl)cc4c3=O)C[C@@H]21 [Example 48, hydrochloride]
12 | COc1cc2c(=O)n(CCN3C[C@@H]4CCc5c(OC)cccc5[C@@H]4C3)c(=O)[nH]c2cc1Cl [Example 49, hydrochloride]
0.631 | COc1ccc2c(=O)n(CCN3C[C@@H]4CCc5c(OC)cccc5[C@@H]4C3)c(=O)n(C)c2c1 [Example 50, hydrochloride]
14.1 | COc1cc2c(cc1Cl)c(=O)n(CCN1C[C@@H]3CCc4c(OC)cccc4[C@@H]3C1)c(=O)n2C [Example 51, hydrochloride]
1.95 | COc1cccc2c1CC[C@H]1CN(CCn3c(=O)[nH]c4ccc5c(c4c3=O)OCO5)C[C@@H]21 [Example 53, hydrochloride]
0.891 | COc1cccc2c1CC[C@H]1CN(CCn3c(=O)[nH]c4c5c(ccc4c3=O)OCO5)C[C@@H]21 [Example 54, hydrochloride]
4.9 | COc1cccc2c1CC[C@H]1CN(CCn3c(=O)oc4cc5c(cc4c3=O)OCO5)C[C@@H]21 [Example 55, hydrochloride]
7.24 | COc1cccc2c1CC[C@H]1CN(CCn3cnc4c(C)c(C)ccc4c3=O)C[C@@H]21 [Example 57, dihydrochloride]
1.26 | COc1cccc2c1CC[C@H]1CN(CCn3cnc4c(OC)c(OC)ccc4c3=O)C[C@@H]21 [Example 58, dihydrochloride]
3.31 | COC(=O)c1cc2c(=O)n(CCN3C[C@@H]4CCc5c(OC)cccc5[C@@H]4C3)c(=O)[nH]c2s1 [Example 59, hydrochloride]
0.708 | COC(=O)c1cc2[nH]c(=O)n(CCN3C[C@@H]4CCc5c(OC)cccc5[C@@H]4C3)c(=O)c2s1 [Example 60, hydrochloride]
2.29 | CCOC(=O)c1c[nH]c2[nH]c(=O)n(CCN3C[C@@H]4CCc5c(OC)cccc5[C@@H]4C3)c(=O)c12 [Example 61, hydrochloride]
2.57 | COc1cccc2c1CC[C@H]1CN(CCn3c(=O)[nH]c4c(-c5ccccc5)c(OC)sc4c3=O)C[C@@H]21 [Example 62, hydrochloride]
1.35 | CCc1c(OC)sc2c(=O)n(CCN3C[C@@H]4CCc5c(OC)cccc5[C@@H]4C3)c(=O)[nH]c12 [Example 63, hydrochloride]
1.55 | COc1cccc2c1CC[C@H]1CN(CCn3c(=O)[nH]c4c(C)c(OC)sc4c3=O)C[C@@H]21 [Example 64, 3-[2-((3aR,9bR)-cis-6-Methoxy-2,3,3a,4,5,9b-hexahydro-[1H]-benz[e]isoindol-1-yl)ethyl]-6-methoxy-7-methylthieno [3,2-d]primidine-2,4(1H,3H)-dione hydrochloride]
2.34 | COc1cccc2c1CC[C@H]1CN(CCn3c(=O)[nH]c4c(C(C)C)c(OC)sc4c3=O)C[C@@H]21 [Example 65, -[2-((3aR,9bR)-cis-6-Methoxy-2,3,3a,4,5,9b-hexahydro-[1H]-benz[e]isoindol-1-yl)ethyl]-6-methoxy-7-isopropylthieno [3,2-d]pyrimidine-2,4(1H,3H)-dione hydrochloride]
1.15 | COc1cccc2c1CC[C@H]1CN(CCn3c(=O)[nH]c4c(C)c(C)cnc4c3=O)C[C@@H]21 [Example 66, dihydrochloride]

More lines, now with the values behind:

SMILES | Kb [nM]
COc1cccc2c1CC[C@H]1CN(CCn3c(=O)[nH]c4scc(C)c4c3=O)C[C@@H]21 (relative stereo) [Example 4, hydrochloride] | 12.3
COc1cccc2c1CC[C@H]1CN(CCn3c(=O)[nH]c4scc(-c5ccccc5)c4c3=O)C[C@@H]21 (relative stereo) [Example 6, hydrochloride] | 47.9
COc1cccc2c1CC[C@H]1CN(CCn3c(=O)[nH]c4sc(-c5ccccc5)cc4c3=O)C[C@@H]21 (relative stereo) [Example 7, 3-[2-(cis-6-Methoxy-2,3,3a,4,5,9b-hexahydro-[1H]-benz[e]isoindol-1-yl)ethyl]-6-phenyl-thieno[2,3-d]pyrimidine-2,4(1H,3H)-dione hydrochloride] | 24
COc1cccc2c1CC[C@H]1CN(CCn3c(=O)[nH]c4cc(Cl)ccc4c3=O)C[C@@H]21 (relative stereo) [Example 11, hydrochloride] | 1.2
COC(=O)c1ccc2c(=O)n(CCN3C[C@@H]4CCc5c(OC)cccc5[C@@H]4C3)c(=O)[nH]c2c1 (relative stereo) [Example 14, hydrochloride] | 0.977
COc1cccc2c1CC[C@H]1CN(CCn3c(=O)[nH]c4ccc(F)cc4c3=O)C[C@@H]21 (relative stereo) [Example 15, 3-[2-(cis-6-Methoxy-2,3,3a,4,5,9b-hexahydro-[1H]-benz[e]isoindol-1-yl)ethyl]-6-fluoro-quinazoline-2,4(1H,3H)-dione hydrochloride] | 5.37
COc1cccc2c1CC[C@H]1CN(CCn3c(=O)[nH]c4ccc([N+](=O)[O-])cc4c3=O)C[C@@H]21 (relative stereo) [Example 16, hydrochloride] | 12.3
COc1ccc2[nH]c(=O)n(CCN3C[C@@H]4CCc5c(OC)cccc5[C@@H]4C3)c(=O)c2c1 (relative stereo) [Example 17, hydrochloride] | 1.15
COc1cccc2c1CC[C@H]1CN(CCn3c(=O)[nH]c4c(OC)c(OC)c(OC)cc4c3=O)C[C@@H]21 (relative stereo) [Example 18, 3-[2-(cis-6-Methoxy-2,3,3a,4,5,9b-hexahydro-[1H]-benz[e]isoindol-1-yl)ethyl]-6,7,8-trimethoxy-quinazoline-2,4(1H,3H)-dione hydrochloride] | 4.17
COc1cccc2c1CC[C@H]1CN(CCn3c(=O)[nH]c4c(C)cccc4c3=O)C[C@@H]21 (relative stereo) [Example 19, hydrochloride] | 5.01
COc1cccc2c1CC[C@H]1CN(CCn3c(=O)[nH]c4c(C)cc(C)cc4c3=O)C[C@@H]21 (relative stereo) [Example 20, hydrochloride] | 1.48
COc1cccc2c1CC[C@H]1CN(CCn3c(=O)[nH]c4ncccc4c3=O)C[C@@H]21 (relative stereo) [Example 21, 3-[2-(cis-6-Methoxy-2,3 3a,4,5,9b-hexahydro-[1H]-benz[e]isoindol-1-yl)ethyl]-pyrido[2,3-d]pyrimidine-2,4(1H,3H)-dione hydrochloride] | 13.2
COc1cccc2c1CC[C@H]1CN(CCn3c(=O)[nH]c4cccnc4c3=O)C[C@@H]21 (relative stereo) [Example 22, hydrochloride] | 1.51
COc1cccc2c1CC[C@H]1CN(CCn3c(=O)[nH]c4cccc(Cl)c4c3=O)C[C@@H]21 (relative stereo) [Example 23, hydrochloride] | 4.79
COc1cccc2c1CC[C@H]1CN(CCn3c(=O)[nH]c4cnccc4c3=O)C[C@@H]21 (relative stereo) [Example 24, dihydrochloride] | 1.29
COc1cccc2c1CC[C@H]1CN(CCn3c(=O)[nH]c4cc(F)ccc4c3=O)C[C@@H]21 (relative stereo) [Example 25, 3-[2-(cis-6-Methoxy-2,3,3a,4,5,9b-hexahydro-[1H]-benz[e]isoindol-1-yl)ethyl]-7-fluoro-quinazoline-2,4(1H,3H)-dione hydrochloride] | 0.676
COc1cccc2c1CC[C@H]1CN(CCn3c(=O)c4ccccc4n(C)c3=O)C[C@@H]21 (relative stereo) [Example 26, hydrochloride] | 0.589
COc1cccc2c1CC[C@H]1CN(CCn3c(=O)[nH]c4ccncc4c3=O)C[C@@H]21 (relative stereo) [Example 27, dihydrochloride] | 2.34
COc1cccc2c1CC[C@H]1CN(CCn3c(=O)[nH]c4c(cnn4C)c3=O)C[C@@H]21 (relative stereo) [Example 28, hydrochloride] | 4.79
COc1cccc2c1CC[C@H]1CN(CCn3c(=O)[nH]c4sc(C)cc4c3=O)C[C@@H]21 (relative stereo) [Example 29, hydrochloride] | 1.23
COc1cccc2c1CC[C@H]1CN(CCn3c(=O)[nH]c4[nH]ccc4c3=O)C[C@@H]21 (relative stereo) [Example 30] | 1.15
COc1cccc2c1CC[C@H]1CN(CCn3c(=O)[nH]c4cc(-c5ccccc5)sc4c3=O)C[C@@H]21 (relative stereo) [Example 32, hydrochloride] | 33.9
COc1cccc2c1CC[C@H]1CN(CCn3cnc4ccccc4c3=O)C[C@@H]21 (relative stereo) [Example 34, dihydrochloride] | 1.05
O=c1[nH]c2sccc2c(=O)n1CCN1C[C@@H]2CCc3c(O)cccc3[C@@H]2C1 (relative stereo) [Example 35, hydrobromide] | 87.1
